39 molecules from US8629157B2, “Pyrrolidine compounds which modulate the CB2 receptor” (Boehringer Ingelheim International GmbH, priority 2009, dated 2014) can be followed below.

In the first assay the target is human CB2R (Homo sapiens, UniProt P34972). As to the kind of experiment: CB2R mediated modulation of cAMP synthesis. Format: cell-based.
Chain of human CB2R (P34972 whole entry): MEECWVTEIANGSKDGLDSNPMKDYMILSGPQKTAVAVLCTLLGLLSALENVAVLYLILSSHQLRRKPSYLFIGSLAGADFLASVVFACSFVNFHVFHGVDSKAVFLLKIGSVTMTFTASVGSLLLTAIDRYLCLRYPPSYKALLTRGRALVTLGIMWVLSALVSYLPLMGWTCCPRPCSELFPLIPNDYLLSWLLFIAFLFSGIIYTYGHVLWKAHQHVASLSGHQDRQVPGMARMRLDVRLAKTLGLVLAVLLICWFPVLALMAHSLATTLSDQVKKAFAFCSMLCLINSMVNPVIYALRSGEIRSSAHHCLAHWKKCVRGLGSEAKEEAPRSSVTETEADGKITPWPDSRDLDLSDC
Conditions: not given
The method in brief: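 cAMP measured with the DiscoverX-XS kit after 30 min, 37° C. compound exposure of human CB2R-expressing CHO cells stimulated by 10 uM forskolin (1 mM IBMX, 0.25% BSA).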
The term EC50 denotes the concentration needed to bring the measured effect to its halfway point. In turn, `CC(C)(C)SCCNC(=O)[C@@H]1CCCN1c1ccc(Cl)cc1` [(S)-1-(4-Chloro-phenyl)-pyrrolidine-2-carboxylic acid (2-tert-butylsulfanyl-ethyl)-amide] registered an EC50 of 2.61 nM.

Molecule `CC1CC(NC(=O)[C@@H]2CCCN2c2ccc(Cl)cc2)CC(C)(C)C1` (stereo partly drawn) [(S)-1-(4-Chloro-phenyl)-pyrrolidine-2-carboxylic acid (3,3,5-trimethyl-cyclohexyl)-amide] had an EC50 of 2.16 nM. The same measure, in the same setting: in the case of `O=C(Nc1ccc(C(F)(F)F)c(F)c1)[C@@H]1CCCN1c1ccc(Cl)cc1` [(S)-1-(4-Chloro-phenyl)-pyrrolidine-2-carboxylic acid (3-fluoro-4-trifluoromethyl-phenyl)-amide] it was 30.4 nM; in that of `O=C(Nc1nc(-c2ccccc2)ns1)[C@@H]1CCCN1c1ccc(Cl)cc1` [(S)-1-(4-Chloro-phenyl)-pyrrolidine-2-carboxylic acid (3-phenyl-1,2,4-thiadiazol-5-yl)-amide], 4.85 nM; in that of `CCCc1cc(NC(=O)[C@@H]2CCCN2c2ccc(Cl)cc2)on1` [(S)-1-(4-Chloro-phenyl)-pyrrolidine-2-carboxylic acid (3-propyl-isoxazol-5-yl)-amide], 2.41 nM. Same read-out and setting: with `O=C(Nc1nc(C2CCCCC2)cs1)[C@@H]1CCCN1c1ccc(Cl)cc1` [(S)-1-(4-Chloro-phenyl)-pyrrolidine-2-carboxylic acid (4-cyclohexyl-thiazol-2-yl)-amide] the figure was 35.5 nM. Still for that read-out and setting: in the case of `O=C(Nc1nc(C2CC2)cs1)[C@@H]1CCCN1c1ccc(Cl)cc1` [(S)-1-(4-Chloro-phenyl)-pyrrolidine-2-carboxylic acid (4-cyclopropyl-thiazol-2-yl)-amide] it was 36.1 nM; in that of `CCc1ccnc(NC(=O)[C@@H]2CCCN2c2ccc(Cl)cc2)c1` [(S)-1-(4-Chloro-phenyl)-pyrrolidine-2-carboxylic acid (4-ethyl-pyridin-2-yl)-amide], 1.2 nM. Turning to `O=C(Nc1ccc(F)c(C(F)(F)F)c1)[C@@H]1CCCN1c1ccc(Cl)cc1` [(S)-1-(4-Chloro-phenyl)-pyrrolidine-2-carboxylic acid (4-fluoro-3-trifluoromethyl-phenyl)-amide], the midpoint of the response, the EC50, lay at 19.1 nM. Still for that read-out and setting: with `CC(C)(C)c1nc(NC(=O)[C@@H]2CCCN2c2ccc(Cl)cc2)sc1C#N` [(S)-1-(4-Chloro-phenyl)-pyrrolidine-2-carboxylic acid (4-tert-butyl-5-cyano-thiazol-2-yl)-amide] the figure was 31.7 nM; with `CC(C)(C)C1CCC(NC(=O)[C@@H]2CCCN2c2ccc(Cl)cc2)CC1` (stereo partly drawn) [(S)-1-(4-Chloro-phenyl)-pyrrolidine-2-carboxylic acid (4-tert-butyl-cyclohexyl)-amide], 7.42 nM; with `CC(C)(C)c1csc(NC(=O)[C@@H]2CCCN2c2ccc(Cl)cc2)n1` [(S)-1-(4-Chloro-phenyl)-pyrrolidine-2-carboxylic acid (4-tert-butyl-thiazol-2-yl)-amide], 30.1 nM. On the same count and under the same terms, in the case of `O=C(Nc1nc(C(F)(F)F)co1)[C@@H]1CCCN1c1ccc(Cl)cc1` [(S)-1-(4-Chloro-phenyl)-pyrrolidine-2-carboxylic acid (4-trifluoromethyl-oxazol-2-yl)-amide] it was 5.79 nM; in that of `O=C(Nc1cc(C(F)(F)F)ccn1)[C@@H]1CCCN1c1ccc(Cl)cc1` [(S)-1-(4-Chloro-phenyl)-pyrrolidine-2-carboxylic acid (4-trifluoromethyl-pyridin-2-yl)-amide], 23.4 nM; in that of `O=C(Nc1nc(C(F)(F)F)cs1)[C@@H]1CCCN1c1ccc(Cl)cc1` [(S)-1-(4-Chloro-phenyl)-pyrrolidine-2-carboxylic acid (4-trifluoromethyl-thiazol-2-yl)-amide], 89.2 nM.

Turning to `CC1(C)CC(=O)C=C(NC(=O)[C@@H]2CCCN2c2ccc(Cl)cc2)C1` [(S)-1-(4-Chloro-phenyl)-pyrrolidine-2-carboxylic acid (5,5-dimethyl-3-oxo-cyclohex-1-enyl)-amide], the EC50 worked out at 17.9 nM. In turn, `O=C(Nc1nc2cc(Cl)ccc2[nH]1)[C@@H]1CCCN1c1ccc(Cl)cc1` [(S)-1-(4-Chloro-phenyl)-pyrrolidine-2-carboxylic acid (5-chloro-1H-benzimidazol-2-yl)-amide] came in with an EC50 of 2.16 nM. The molecule `Cc1ccc(NC(=O)[C@@H]2CCCN2c2ccc(Cl)cc2)nc1` [(S)-1-(4-Chloro-phenyl)-pyrrolidine-2-carboxylic acid (5-methyl-pyridin-2-yl)-amide] came in with an EC50 of 120 nM. Still for that read-out and setting: with `O=C(Nc1nnc(-c2ccccc2)s1)[C@@H]1CCCN1c1ccc(Cl)cc1` [(S)-1-(4-Chloro-phenyl)-pyrrolidine-2-carboxylic acid (5-phenyl-1,3,4-thiadiazol-2-yl)-amide] the figure was 11.2 nM. The molecule `CC(C)(C)c1nnc(NC(=O)[C@@H]2CCCN2c2ccc(Cl)cc2)s1` [(S)-1-(4-Chloro-phenyl)-pyrrolidine-2-carboxylic acid (5-tert-butyl-1,3,4-thiadiazol-2-yl)-amide] gave an EC50 of 0.098 nM.

Turning to `O=C(Nc1ccc(C(F)(F)F)cn1)[C@@H]1CCCN1c1ccc(Cl)cc1` [(S)-1-(4-Chloro-phenyl)-pyrrolidine-2-carboxylic acid (5-trifluoromethyl-pyridin-2-yl)-amide], the concentration giving a half-maximal response (EC50) was 35.1 nM. The same measure, in the same setting: with `O=C(Nc1cccc(C(F)(F)F)n1)[C@@H]1CCCN1c1ccc(Cl)cc1` [(S)-1-(4-Chloro-phenyl)-pyrrolidine-2-carboxylic acid (6-trifluoromethyl-pyridin-2-yl)-amide] the figure was 48.8 nM; with `O=C(NC1CCOCC1)[C@@H]1CCCN1c1ccc(Cl)cc1` [(S)-1-(4-Chloro-phenyl)-pyrrolidine-2-carboxylic acid (tetrahydro-pyran-4-yl)-amide], 254 nM; with `O=C(NCC1CCOCC1)[C@@H]1CCCN1c1ccc(Cl)cc1` [(S)-1-(4-Chloro-phenyl)-pyrrolidine-2-carboxylic acid (tetrahydro-pyran-4-ylmethyl)-amide], 415 nM. On the same count and under the same terms, with `CC(Cc1ccc(Cl)cc1)NC(=O)[C@@H]1CCCN1c1ccc(Cl)cc1` (stereo partly drawn) [(S)-1-(4-Chloro-phenyl)-pyrrolidine-2-carboxylic acid [2-(4-chloro-phenyl)-1-methyl-ethyl]-amide] the figure was 270 nM; with `O=C(NCCC1CCOCC1)[C@@H]1CCCN1c1ccc(Cl)cc1` [(S)-1-(4-Chloro-phenyl)-pyrrolidine-2-carboxylic acid [2-(tetrahydro-pyran-4-yl)-ethyl]-amide], 105 nM; with `CC(C)(CO)c1cc(NC(=O)[C@@H]2CCCN2c2ccc(Cl)cc2)on1` [(S)-1-(4-Chloro-phenyl)-pyrrolidine-2-carboxylic acid [3-(2-hydroxy-1,1-dimethyl-ethyl)-isoxazol-5-yl]-amide], 0.378 nM.

Turning to `O=C(Nc1nc(-c2ccc(Cl)cc2)cs1)[C@@H]1CCCN1c1ccc(Cl)cc1` [(S)-1-(4-Chloro-phenyl)-pyrrolidine-2-carboxylic acid [4-(4-chloro-phenyl)-thiazol-2-yl]-amide], the EC50 stood at 84.9 nM. Same read-out and setting: in the case of `O=C(Nc1nc(-c2ccc(F)cc2)cs1)[C@@H]1CCCN1c1ccc(Cl)cc1` [(S)-1-(4-Chloro-phenyl)-pyrrolidine-2-carboxylic acid [4-(4-fluoro-phenyl)-thiazol-2-yl]-amide] it was 115 nM. `CC(C)(C)c1cc(NC(=O)[C@@H]2CCC(=O)N2c2ccc(C#N)c(F)c2)no1` [(S)-1-(4-Cyano-3-fluoro-phenyl)-5-oxo-pyrrolidine-2-carboxylic acid (5-tert-butyl-isoxazol-3-yl)-amide] displayed an EC50 of 78.5 nM.

Molecule `CC(C)(C)c1cc(NC(=O)[C@@H]2CCCN2Cc2ccc(OC(F)F)cc2)on1` [(S)-1-(4-Difluoromethoxy-benzyl)-pyrrolidine-2-carboxylic acid (3-tert-butyl-isoxazol-5-yl)-amide] showed a concentration giving a half-maximal response (EC50) of 8.04 nM. Same read-out and setting: with `CC(C)(C)c1cc(NC(=O)[C@@H]2CCC(=O)N2c2ccc(C(F)F)cc2)on1` [(S)-1-(4-Difluoromethyl-phenyl)-5-oxo-pyrrolidine-2-carboxylic acid (3-tert-butyl-isoxazol-5-yl)-amide] the figure was 15.2 nM; with `CCc1ccc(N2C(=O)CC[C@H]2C(=O)Nc2cc(C(C)(C)C)no2)cc1` [(S)-1-(4-Ethyl-phenyl)-5-oxo-pyrrolidine-2-carboxylic acid (3-tert-butyl-isoxazol-5-yl)-amide], 173 nM; with `Cc1cc(N2C(=O)CC[C@H]2C(=O)Nc2cc(C(C)(C)C)no2)ccc1F` [(S)-1-(4-Fluoro-3-methyl-phenyl)-5-oxo-pyrrolidine-2-carboxylic acid (3-tert-butyl-isoxazol-5-yl)-amide], 91.2 nM. Still for that read-out and setting: in the case of `Cc1cc(N2C(=O)CC[C@H]2C(=O)Nc2cc(C(C)(C)C)on2)ccc1F` [(S)-1-(4-Fluoro-3-methyl-phenyl)-5-oxo-pyrrolidine-2-carboxylic acid (5-tert-butyl-isoxazol-3-yl)-amide] it was 362 nM; in that of `CC(C)(C)c1cc(NC(=O)[C@@H]2CCCN2Cc2ccc(F)cc2)on1` [(S)-1-(4-Fluoro-benzyl)-pyrrolidine-2-carboxylic acid (3-tert-butyl-isoxazol-5-yl)-amide], 0.747 nM.

The same assay, now with this note: CHO cells expressing human CB2R; inhibition of forskolin-stimulated cAMP synthesis; mean; read-out: CB2 CAMP @ EC50 nM (mean).
Turning to `O=C(Nc1nc2c(s1)CCCC2)[C@@H]1CCCN1c1ccc(Cl)cc1` [(S)-1-(4-Chloro-phenyl)-pyrrolidine-2-carboxylic acid (4,5,6,7-tetrahydro-benzothiazol-2-yl)-amide], the EC50 is 12.7 nM. The same measure, in the same setting: in the case of `Cc1nonc1CNC(=O)[C@@H]1CCCN1c1ccc(Cl)cc1` [(S)-1-(4-Chloro-phenyl)-pyrrolidine-2-carboxylic acid (4-methyl-furazan-3-ylmethyl)-amide] it was 498 nM; in that of `CC(C)(C)c1cc(NC(=O)[C@@H]2CCC(=O)N2c2ccc(C#N)c(F)c2)on1` [(S)-1-(4-Cyano-3-fluoro-phenyl)-5-oxo-pyrrolidine-2-carboxylic acid (3-tert-butyl-isoxazol-5-yl)-amide], 286 nM.
